In patent US20170217956A1, “AZAINDOLE RETINOIC ACID RECEPTOR-RELATED ORPHAN RECEPTOR MODULATORS AND USES THEREOF” (INNOV17 LLC, priority 2014, published 2017):

How the values were obtained:
Type in all cases: cell-based
Settings in all cases: 72 h; human CD4+ T cells under TH17-polarizing conditions, 3 days, supernatant ELISA, 0.1% DMSO
IL-17F = assay: Human TH17 cytokine inhibition as measured by ELISA (IL-17F)
Experimental: (§1) Peripheral blood mononuclear cells (PBMCs) were sourced from freshly prepared leukocyte enriched plasma (buffy coat) from healthy donors (New York Blood Center). PBMCs were isolated by density gradient centrifugation using Ficoll-Paque™ PLUS (GE Healthcare). Human CD4+ T cells were seeded into 96-well plates (5×10^4 cells/well) and activated with plate-bound anti-human (h)-CD3 antibody and soluble h-aCD28 (both at 1 ug/ml; eBioscience) and differentiated into TH17 cells with 20 ng/mL h-IL-6, 5 ng/mL h-TGF-β1, 10 ng/mL h-IL-23 (eBioscience) and 10 ng/mL IL-1β (Miltenyi Biotec) in serum-free TexMACS Medium (Miltenyi Biotec) supplemented with 1% Penicillin/Streptomycin (Lonza) for 3 days. CD4+ T cells propagated under TH17-polarizing conditions were cultured in the presence or absence of various concentrations of compounds with a final concentration of 0.1% DMSO. Supernatants were collected and stored at −20° C. until assayed for IL-17A, IL-17F and IL-21 levels by “Ready-Set-Go” ELISA kits (eBioscience) as per manufacturer's instructions. Endpoint absorbance was read at 450 nm using a microplate reader (Perkin Elmer).

IL-21 = assay: Human TH17 cytokine inhibition as measured by ELISA (IL-21)
Experimental: as §1

IL-17A = assay: Human TH17 cytokine inhibition as measured by ELISA (IL-17A)
Experimental: as §1

IL-22 = assay: Human TH17 cytokine inhibition as measured by ELISA (IL-22)

Measured: IC50

C[C@H]1C[C@H](Cn2ccc3nc(-c4cn[nH]c4)ccc32)CN1C(=O)CCc1ccccc1 (racemic) [Example 40, rac.-trans-1-(4-((5-(1H-pyrazol-4-yl)-1H-pyrrolo[3,2-b]pyridin-1-yl)methyl)-2-methylpyrrolidin-1-yl)-3-phenylpropan-1-one]
< 10 µM: all assays above

C[C@@H]1C[C@H](Cn2ccc3nc(-c4cn[nH]c4)ccc32)CN1C(=O)CCc1ccccc1 (racemic) [Example 41, rac.-cis-1-(4-((5-(1H-pyrazol-4-yl)-1H-pyrrolo[3,2-b]pyridin-1-yl)methyl)-2-methylpyrrolidin-1-yl)-3-phenylpropan-1-one]
< 10 µM: IL-17F | IL-21 | IL-17A
